The test system of the experiment is Passive Cutaneous Anaphylaxis. Description: Passive Cutaneous Anaphylaxis test (PCA) in rats. The class given is in vivo. Conditions: Rattus norvegicus, read-out: ED50 (dose reducing the size of the blued area by 50%). The protocol:
The compounds of the present invention, that is, those embraced by formula I and their non-toxic, pharmacologically acceptable salts, have useful pharmacodynamic properties.
The anti-allergic properties were ascertained in rats by the Passive Cutaneous Anaphylaxis test (PCA) essentially as described by Goose and Blair (Immunology 16: 749-760,1969). Rat serum was diluted so that the skin reactions with diameters between 10 and 15 mm in unsensitized rats were produced. The PCA test was performed in duplicate by injecting 0.1 ml of this antiserum dilution on each side of the shaved back of rats. Rats so treated were injected intravenously (i.v.) twenty-four hours later with 5 mg ovalbumin in 0.5 ml of 2% Evans Blue and the test substance to be tested by the i.v. route. In the case of substances tested orally, the i.v. ovalbumin challenge was 0.015 mg in the 0.5 ml of 2% Evans Blue solution administered 20-30 minutes after the oral administration of the test substance. Thirty minutes after challenge the rats were killed by CO2 asphyxiation and the skin reflected the diameters, in millimeters, of the blued areas were measured and the mean diameter determined. The circular area was calculated and the mean area in square millimeters of the control group was considered as 100% and the results of the compound test groups were expressed as a percentage change from these control values. From dose response curves the dose reducing the size of the blued area by 50% (ED50) was estimated.

Where [1] appears, read: p.o., 0.015 mg ovalbumin i.v. challenge 20-30 minutes after oral administration.
Where [2] appears, read: iv, test substance given i.v. with 5 mg ovalbumin in 0.5 ml of 2% Evans Blue.

The source of these data is patent US4238496A, “4-Substituted thiazolyl-2-oxamic acids and salts and esters thereof” (Boehringer Ingelheim GmbH, priority 1978, dated 1980).

Counter-ions that a name gives are not always drawn. Like-named read-outs stand apart in the source and are kept apart here.

Consider `CCOC(=O)C(=O)Nc1nc(-c2ccc(OCC)cc2)cs1` [Ethyl 4-(4'-ethoxy-phenyl)-thiazolyl-2-oxamate], for which the median effective dose (ED50) under setting [1] came out at 2.07 mg/kg.
For the compound `O=C(O)C(=O)Nc1nc(-c2ccc3c(c2)OCCO3)cs1` [4-(benzodioxanyl)-thiazolyl-2-oxamic acid ethanolamine salt], the median effective dose (ED50) by setting is: under setting [2], 0.02 mg/kg; under setting [1], 0.7 mg/kg.
Regarding `CCOC(=O)C(=O)Nc1nc(-c2ccncc2)cs1` [Ethyl 4-[pyridyl-($')]-thiazolyl-2-oxamate], the median effective dose (ED50) under setting [1] amounted to 1.2 mg/kg.
Consider `COc1ccccc1-c1csc(NC(=O)C(=O)O)n1` [4-(2'-Methoxy-phenyl)-thiazolyl-2-oxamic acid], for which the ED50 under setting [2] amounted to 1.08 mg/kg.
As to `COc1cccc(-c2csc(NC(=O)C(=O)O)n2)c1` [4-(3'-methoxy-phenyl)-thiazolyl-2-oxamic acid], the ED50 was found to be 0.16 mg/kg under setting [2] and 2 mg/kg under setting [1].
In the case of `COc1ccc(-c2csc(NC(=O)C(=O)O)n2)c(OC)c1` [4-(2',4'4'-dimethoxy-phenyl)-thiazolyl-2-oxamic acid], the 50% effective dose (ED50) under setting [2] was 0.39 mg/kg.
Take `CCOC(=O)C(=O)Nc1nc(-c2ccc(O)c(C)c2)cs1` [Ethyl 4-(3'-methyl-4'-hydroxy-phenyl)-thiazolyl-2-oxamate]: under setting [1], the ED50 was 2.1 mg/kg.
In the case of `O=C(O)C(=O)Nc1nc(-c2ccncc2)cs1` [4-[pyridyl-(4')]-thiazolyl-2-oxamic acid ethanolamine salt], under setting [2], the median effective dose (ED50) amounted to 0.05 mg/kg.
Still for that read-out and setting: for `COc1ccc(-c2csc(NC(=O)C(=O)O)n2)cc1OC` [4-(3',4'-dimethoxy-phenyl)-thiazolyl-2-oxamic acid] the value was 0.13 mg/kg.
Regarding `COC(=O)C(=O)Nc1nc(-c2ccc(OC)c(OC)c2)cs1` [Methyl 4-(3',4'-dimethoxy-phenyl)-thiazolyl-2-oxamate], under setting [1], the median effective dose (ED50) was 1.2 mg/kg.
In the case of `CN(C)c1cccc(-c2csc(NC(=O)C(=O)O)n2)c1` [4-(3' -dimethylamino-phenyl)-thiazolyl-2-oxamic acid ethanolamine salt], the ED50 is, setting by setting: under setting [2], 0.34 mg/kg; under setting [1], 1.06 mg/kg.
Turning to `CN(C)c1ccc(-c2csc(NC(=O)C(=O)O)n2)cc1` [4-(4'-dimethylamino-phenyl)-thiazolyl-2-oxamic acid], the ED50 reads like this: under setting [2], 0.02 mg/kg; under setting [1], 0.34 mg/kg.
As to `COc1ccc(OC)c(-c2csc(NC(=O)C(=O)O)n2)c1` [4-(2',5'-dimethoxy-phenyl)-thiazolyl-2-oxamic acid ethanolamine salt], the 50% effective dose (ED50) under setting [2] stood at 0.4 mg/kg.
As to `Cc1sc(NC(=O)C(=O)O)nc1-c1ccccc1` [4-phenyl-5-methyl-thiazolyl-2-oxamic acid], the 50% effective dose (ED50) was 0.19 mg/kg under setting [2] and 2.04 mg/kg under setting [1].
`O=C(O)C(=O)Nc1nc(-c2cccnc2)cs1` [4-[pyridyl-(3')]-thiazolyl-2-oxamic acid ethanolamine salt]: the ED50 under setting [2] is 0.16 mg/kg.
